{"source": "patent US12319699B2", "about": "“L-proline sulfonamide derivatives comprising pyrazolo[4,3-e]tetrazolo[4,5-b][1,2,4]triazine system, method of manufacturing thereof, uses thereof and pharmaceutical composition comprising the same” (UNIWERSYTET MEDYCZNY W BIALYMSTOKU, priority 2018, dated 2025)", "key": {"[1]": {"test_system": "AGS human gastric cancer cells", "assay": "Cytotoxicity, MTT assay (Carmichael's method), cell survival", "format": "cell-based", "settings": "24-hour incubation", "description": "AGS human gastric cancer cells (ATCC CRL-1739, Manassas, VA, USA) were cultured in DMEM (Dulbecco's Modified Eagle's Medium) supplemented with 10% fetal bovine serum (FBS), 2 mM glutamine, 50 U/ml penicillin, 50 μg/ml streptomycin at 37° C., in atmosphere containing 5% CO2. Subsequently, the cells were counted in a hemocytometer and transferred in the amount of […] cells per well in 1 ml of culture medium from Costar flasks (Sigma, USA) to Nunc 6-well plates (Wiesbaden, Germany). The cells were transferred using calcium-free phosphate buffer with the addition of 0.05% trypsin and 0.02% EDTA. […] Within the subsequent 24 hours the cells covered at least 80% of the surface of each plate well. […]\n(§1) Cytotoxicity of the examined compounds according to the invention was measured by Carmichael's method (Carmichael J et al, Cancer Res., 1987, 47:943-946) and cell viability was determined using the tetrazolium salt (MT) in MTT assay. […] In a cell lysate prepared in such manner absorbance at 630 nm was measured. The result of absorbance obtained in the control cell cultures was assumed to be 100%. The viability of cells incubated in the presence of the examined compounds was expressed as percentage of the control values. The significance level p was determined by the nonparametric Mann-Whitney U test by means of SigmaStat software. […]"}, "[2]": {"test_system": "HT-29 human colorectal cancer cells", "assay": "Cytotoxicity, MTT assay (Carmichael's method), cell survival", "format": "cell-based", "settings": "HT-29, 24-hour incubation", "description": "HT-29 human colorectal cancer cells (ATCC HTB-38, Manassas, VA, USA) were cultured in McCoy's 5A medium supplemented with 10% fetal bovine serum (FBS), 2 mM glutamine, 50 U/ml penicillin, 50 μg/ml of streptomycin at 37° C., in atmosphere containing 5% CO2. Subsequently, the cells were counted in a hemocytometer and were transferred in the amount of 1×10^6 cells per well in 1 ml of culture medium from Costar flasks (Sigma, USA) to Nunc 6-well plates (Wiesbaden, Germany). The cells were transferred using calcium-free phosphate buffer with the addition of 0.05% trypsin and 0.02% EDTA. […] Within the subsequent 24 hours the cells covered at least 80% of the surface of each plate well. […]\nas §1"}, "[3]": {"test_system": "HT-29 colorectal cancer cells", "assay": "Decrease in mitochondrial membrane potential, JC-1 MitoScreen flow cytometry", "format": "cell-based, human", "settings": "24 hours", "description": "HT-29 human colorectal cancer cells (ATCC HTB-38, Manassas, VA, USA) were cultured in McCoy's 5A medium supplemented with 10% fetal bovine serum (FBS), 2 mM glutamine, 50 U/ml penicillin, 50 μg/ml of streptomycin at 37° C., in atmosphere containing 5% CO2. Subsequently, the cells were counted in a hemocytometer and were transferred in the amount of 1×10^6 cells per well in 1 ml of culture medium from Costar flasks (Sigma, USA) to Nunc 6-well plates (Wiesbaden, Germany). The cells were transferred using calcium-free phosphate buffer with the addition of 0.05% trypsin and 0.02% EDTA. […] Within the subsequent 24 hours the cells covered at least 80% of the surface of each plate well. The cells prepared in this manner were incubated with the examined compounds for 24 hours and then used for further experiments.\nFor the assessment of changes in mitochondrial potential JC-1 MitoScreen kit (BD Biosciences. USA) was used. DLD-1 and HT-29 cancer cells covering about 80% of the plate surface were incubated with the examined compounds according to the invention at specific concentrations in an incubator at 37° C. in 5% CO2 atmosphere for 24 hours. Both examined compounds according to the invention were used at a concentration of 1.5 μM and 3.0 μM. After the incubation period, the medium was removed, the buffer included in the kit was added and the cells after washing two times were suspended in a mixture of JC-1 dye (5,5′,6,6′-tetrachloro-1,1′,3,3′-tetraethylbenzimidazol carbocyanine iodide) with a buffer at a concentration of 10 μg/ml. Subsequently, the samples were incubated in darkness for 15 minutes, washed with PBS solution and subjected to immediate analysis with the use of BD FacsCanto II flow cytometer; the results were assessed with the use of BD FacsDiva software. In live intact cells JC-1 dye accumulates in mitochondria and forms orange fluorescing aggregates. A decrease in mitochondrial potential ΔΨm is characterized by disintegration of these aggregates and green fluorescence."}, "[4]": {"assay": "Body weight of xenograft mice after two-week therapy", "format": "in vivo", "settings": "mice with DLD-1 and HT-29 xenografts, 50 μg/kg s.c. once a day", "description": "(§2) The second stage of the study was carried out with the use of animals (Cby.Cg-Foxn1nu/J mice, females) (Jackson Laboratory, USA). […] All procedures were carried out in accordance with the guidelines for experiments in animals and a protocol approved by the Local Ethics Committee (Resolution No. August 2018).\n(§3) After the first week, when tumours reached about 5 mm in diameter, i.e. the size which according to literature data is suitable for carrying out further steps of examination, the mice began receiving subcutaneous injections of the sulfonamide derivative of 7-methyl-5-phenyl-pyrazolo[4,3-e]tetrazolo[4,5-b][1,2,4]triazine comprising 4-hydroxy-L-proline methyl ester in the sulfonamide group according to the invention (the compound of Formula 3) in a dose of 50 μg/kg once a day for two weeks. The moment of administration of the compound was marked as time 0. […] Before the administration of the sulfonamide derivative of 7-methyl-5-phenyl-pyrazolo[4,3-e]tetrazolo[4,5-b][1,2,4]triazine comprising 4-hydroxy-L-proline methyl ester in the sulfonamide group according to the invention (time 0), after the first week (time 1) and the second week (time 2) of administering this compound, the sizes of tumours were measured in two dimensions by means of a digital calliper. […]\nAdditionally, the effect of the compound of Formula 3 on the body weight of the animals after the two-week therapy was assessed."}, "[5]": {"assay": "Haematological analysis of xenograft mice after two-week therapy", "format": "in vivo", "settings": "mice with DLD-1 and HT-29 xenografts, 50 μg/kg s.c. once a day", "description": "as §2, §3"}}, "data": [{"smiles": "COC(=O)C1CCCN1S(=O)(=O)c1ccc(-n2nc(C)c3nc4nnnn4nc32)cc1", "note": "(stereo not shown) [Compound of Formula 2, Methyl 1-[4-(7-methyl-5H-pyrazol[4,3-e]tetrazolo[4,5-b][1,2,4]triazyn-5-yl)phenylsulfonyl]pyrrolidine-2-carboxylate]", "values": [{"measurement": "IC50", "setting": "[1]", "result": "920 ± 10", "unit": "nM"}, {"measurement": "IC50", "setting": "[2]", "result": "1730 ± 30", "unit": "nM"}, {"measurement": "decrease of ΔΨm, % of the cell population", "setting": "[3]; HT-29, 1.5 μM", "result": 25.7, "unit": "%"}, {"measurement": "decrease of ΔΨm, % of the cell population", "setting": "[3]; HT-29, 3.0 μM", "result": 79.7, "unit": "%"}]}, {"smiles": "COC(=O)C1CC(O)CN1S(=O)(=O)c1ccc(-n2nc(C)c3nc4nnnn4nc32)cc1", "note": "(stereo not shown) [Compound of Formula 3, Methyl 4-hydroxy-1-[4-(7-methyl-5H-pyrazolo[4,3-e]tetrazolo[4,5-b][1,2,4]triazyn-5-yl)phenylsulfonyl]pyrrolidine-2-carboxylate]", "values": [{"measurement": "effect on body weight of the animals vs control", "setting": "[4]", "result": "No significant differences"}, {"measurement": "haematological parameters (WBC, RBC, PLT, HCT, HGB, MCV, MCH, MCHC)", "setting": "[5]", "result": "did not reveal any statistically significant changes"}, {"measurement": "IC50", "setting": "[1]", "result": "800 ± 10", "unit": "nM"}, {"measurement": "IC50", "setting": "[2]", "result": "3130 ± 20", "unit": "nM"}, {"measurement": "decrease of ΔΨm, % of the cell population", "setting": "[3]; HT-29, 1.5 μM", "result": 26.9, "unit": "%"}, {"measurement": "decrease of ΔΨm, % of the cell population", "setting": "[3]; HT-29, 3.0 μM", "result": 81.0, "unit": "%"}]}]}
